Reference: US20210178009A1, “WOUND CARE PRODUCTS COMPRISING ALEXIDINE” (TELEFLEX MEDICAL INCORPORATED, priority 2015, published 2021)

Columns and labels:
Assay in all cases: Time to kill comparison
Format in all cases: cell-based
Pseudomonas aeruginosa = details: P. aeruginosa, 128 ppm, challenge 10^4-10^5 CFU/mL
Experimental: (§1) Alexidine and Chlorhexidine, both at a concentration of 128 ppm were exposed to a Gram positive bacteria (Staphylococcus aureus), a Gram negative bacteria (Pseudomonas aeruginosa), and a fungus (Candida albicans). The challenge concentration for each organism was 10^4-10^5 CFU/mL, and the exposure time varied from 0.5-60 minutes. […] Complete kill of all three organisms was observed within 0.5-1 minute of Alexidine exposure.

Staphylococcus aureus = details: 128 ppm; for exposure time to complete kill: S. aureus, challenge 10^4-10^5 CFU/mL; for Number of Microbial Colonies: Staphylococcus aureus, 5 replicates, TNTC = too numerous to count
Experimental: as §1

Candida albicans = details: 128 ppm; for exposure time to complete kill: C. albicans, challenge 10^4-10^5 CFU/mL; for Number of Microbial Colonies: Candida albicans, 5 replicates, TNTC = too numerous to count
Experimental: as §1

SMILES | exposure time to complete kill (Pseudomonas aeruginosa) | exposure time to complete kill (Staphylococcus aureus) | exposure time to complete kill (Candida albicans) | Number of Microbial Colonies (Staphylococcus aureus; exposure 0.5 minutes) | Number of Microbial Colonies (Staphylococcus aureus; exposure 1 minute) | Number of Microbial Colonies (Staphylococcus aureus; exposure 5 minutes) | Number of Microbial Colonies (Candida albicans; exposure 0.5 minutes) | Number of Microbial Colonies (Candida albicans; exposure 1 minute) | Number of Microbial Colonies (Candida albicans; exposure 5 minutes)
CCCCC(CC)CNC(=N)NC(=N)NCCCCCCNC(=N)NC(=N)NCC(CC)CCCC (stereo not drawn) [Alexidine] | 0.5 to 1 min | 0.5 to 1 min | 0.5 to 1 min |  |  |  |  |  | 
[H]/N=C(\N/C(=N/[H])NCCCCCCNC(=N)NC(=N)Nc1ccc(Cl)cc1)Nc1ccc(Cl)cc1 [Chlorhexidine] | 5 min | 60 min | 60 min | TNTC | TNTC | TNTC | TNTC | TNTC | TNTC
